Experimental data as given in patent US20120157439A1, “RAF INHIBITOR COMPOUNDS AND METHODS OF USE THEREOF” (GENENTECH, INC., priority 2009, published 2012).
Read-outs that look alike come from different tables or passages of the source.

Target: T1, V600E full-length B-Raf (Homo sapiens, UniProt P15056, V600E)
T1 construct: 1 μM FSBA-MEK and 20 nM V600E full-length B-Raf; made in house; host or cells: sf9 insect cells (baculovirus)
Experiment: B-Raf IC50 Assay (B-RAF V600E inhibition assay, Example A)
Type: biochemical
In short: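 Full-length V600E B-Raf (20 nM, from Sf9 baculovirus) was preincubated 15 min with 1 μM FSBA-modified wild-type MEK in pH 7.2 Pipes/KCl/MgCl2 buffer, then started with 4 μM ATP plus [γ-33P]ATP. After 60 min at 22 °C, TCA-quenched product was filter-captured and 33P incorporation counted by scintillation.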

[1] = B-Raf V600E assay of Example A: less than 100 nM, read-out: IC50
[2] = B-Raf V600E assay of Example A: less than about 1 μM, read-out: IC50
[3] = incorporation of radio labeled phosphate from [γ-33P]ATP into FSBA-modified wild-type MEK, 4 μM ATP, 20 nM V600E full-length B-Raf, 60-minute incubation, 22° C., read-out: BRAF V600E IC50

T1 sequence (P15056 whole entry V600E): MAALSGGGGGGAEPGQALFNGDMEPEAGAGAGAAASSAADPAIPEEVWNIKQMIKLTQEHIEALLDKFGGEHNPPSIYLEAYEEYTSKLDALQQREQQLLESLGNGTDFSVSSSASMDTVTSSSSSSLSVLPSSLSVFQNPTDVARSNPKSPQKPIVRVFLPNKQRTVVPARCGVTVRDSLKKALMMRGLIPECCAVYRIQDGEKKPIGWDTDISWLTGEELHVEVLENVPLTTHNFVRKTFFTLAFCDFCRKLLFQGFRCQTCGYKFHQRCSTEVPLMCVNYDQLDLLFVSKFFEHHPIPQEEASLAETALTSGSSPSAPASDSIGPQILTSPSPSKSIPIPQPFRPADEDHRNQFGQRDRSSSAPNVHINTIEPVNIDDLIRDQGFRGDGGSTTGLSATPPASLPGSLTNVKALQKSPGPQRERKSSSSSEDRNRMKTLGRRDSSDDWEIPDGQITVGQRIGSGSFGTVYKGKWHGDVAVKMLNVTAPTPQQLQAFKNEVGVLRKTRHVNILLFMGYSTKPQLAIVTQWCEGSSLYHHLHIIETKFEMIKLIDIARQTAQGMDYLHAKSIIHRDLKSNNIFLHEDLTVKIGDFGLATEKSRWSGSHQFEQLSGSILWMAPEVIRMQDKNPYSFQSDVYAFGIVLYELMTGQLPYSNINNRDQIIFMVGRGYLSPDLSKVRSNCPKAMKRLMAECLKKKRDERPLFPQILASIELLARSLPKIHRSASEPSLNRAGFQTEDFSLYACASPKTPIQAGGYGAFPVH

Row | IC50 [1] [nM] | IC50 [2] [nM] | IC50 [3] [nM] | SMILES
1 | < 100 | < 1000 | 16 | CCCS(=O)(=O)Nc1cc(F)c(F)c(NC(=O)c2csc3c(NCC(F)F)ncnc23)c1F [Example 90, 4-(2,2-Difluoro-ethylamino)-thieno[3,2-d] pyrimidine-7-carboxylic acid [2,3,6-trifluoro-5-(propane-1-sulfonyl-amino)-phenyl]-amide]
2 | < 100 | < 1000 | 20.6 | CCCS(=O)(=O)Nc1ccc(F)c(NC(=O)c2c[nH]c3c(N)ncnc23)c1F [Example 102, 4-Amino-5H-pyrrolo[3,2-d]pyrimidine-7-carboxylic acid [2,6-difluoro-3-(propane-1-sulfonylamino)-phenyl]-amide]
3 | < 100 | < 1000 | 5.09 | CCCS(=O)(=O)Nc1cc(F)c(F)c(NC(=O)c2csc3c(NN4CCOCC4)ncnc23)c1F [Example 95, 4-(Morpholin-4-ylamino)-thieno[3,2-d] pyrimidine-7-carboxylic acid [2,3,6-trifluoro-5-(propane-1-sulfonyl-amino)-phenyl]-amide]
4 | < 100 | < 1000 | 13.2 | CCCS(=O)(=O)Nc1cc(F)c(F)c(NC(=O)c2csc3c(NC)ncnc23)c1F [Example 92, 4-Methyl-amino-thieno[3,2-d] pyrimidine-7-carboxylic acid [2,3,6-trifluoro-5-(propane-1-sulfonyl-amino)-phenyl]-amide]
5 | < 100 | < 1000 | 0.5 | CCCS(=O)(=O)Nc1ccc(Cl)c(NC(=O)c2csc3c(NCCF)ncnc23)c1Cl [Example 74, 4-(2-Fluoro-ethylamino)-thieno[3,2-d] pyrimidine-7-carboxylic acid [2,6-dichloro-3-(propane-1-sulfonyl-amino)-phenyl]amide]
6 | < 100 | < 1000 | 1.2 | CCCS(=O)(=O)Nc1ccc(Cl)c(NC(=O)c2csc3c(NOC)ncnc23)c1Cl [Example 65, 4-Methoxyamino-thieno[3,2-d]pyrimidine-7-carboxylic acid [2,6-dichloro-3-(propane-1-sulfonylamino)-phenyl]amide]
7 | < 100 | < 1000 | 35.4 | CCCS(=O)(=O)Nc1ccc(F)c(NC(=O)c2csc3c(Nc4ccccc4)ncnc23)c1F [Example 63, 4-Phenylamino-thieno[3,2-d]pyrimidine-7-carboxylic acid [2,6-difluoro-3-(propane-1-sulfonylamino)-phenyl]-amide]
8 | < 100 | < 1000 | 3.7 | CCCS(=O)(=O)Nc1cc(F)c(F)c(NC(=O)c2csc3c(NCCF)ncnc23)c1F [Example 89, 4-(2-Fluoro-ethylamino)-thieno[3,2-d] pyrimidine-7-carboxylic acid [2,3,6-trifluoro-5-(propane-1-sulfonyl-amino)e-phenyl]-amid]
9 | < 100 | < 1000 | 77.5 | CCCS(=O)(=O)Nc1ccc(Cl)c(NC(=O)c2csc3c(NC4CCOCC4)ncnc23)c1Cl [Example 77, 4-(Tetrahydro-pyran-4-ylamino)-thieno[3,2-d] pyrimidine-7-carboxylic acid [2,6-dichloro-3-(propane-1-sulfonyl-amino)-phenyl]-amid]
10 | < 100 | < 1000 | 57.1 | CCCS(=O)(=O)Nc1ccc(F)c(NC(=O)c2csc3c(NCCO)ncnc23)c1F [Example 59, 4-(2-Hydroxy-ethylamino)-thieno[3,2-d] pyrimidine-7-carboxylic acid [2,6-difluoro-3-(propane-1-sulfonylamino)-phenyl]-amide]
11 | < 100 | < 1000 | 40.3 | O=C(Nc1c(F)ccc(NS(=O)(=O)CCCF)c1F)c1csc2cncnc12 [Example 109, Thieno[3,2-d]pyrimidine-7-carboxylic acid [2,6-difluoro-3-(3-fluoro-propane-1-sulfonyl-amino)-phenyl]-amide]

Second part, the compound before the results:

Row | SMILES | IC50 [1] [nM] | IC50 [2] [nM] | IC50 [3] [nM]
12 | CCCS(=O)(=O)Nc1ccc(F)c(NC(=O)c2csc3c(C(F)F)ncnc23)c1F [Example 42, 4-Difluoromethyl-thieno[3,2-d]pyrimidine-7-carboxylic acid [2,6-difluoro-3-(propane-1-sulfonylamino)-phenyl]-amide] | < 100 | < 1000 | 26
13 | CCCS(=O)(=O)Nc1ccc(F)c(NC(=O)c2csc3c(NCC)ncnc23)c1Cl [Example 44, 4-Ethylamino-thieno[3,2-d]pyrimidine-7-carboxylic acid [2-chloro-6-fluoro-3-(propane-1-sulfonylamino)-phenyl]-amide] | < 100 | < 1000 | 8.7
14 | CCCS(=O)(=O)Nc1ccc(F)c(NC(=O)c2cn(C)c3c(N)ncnc23)c1F [Example 1, 4-amino-5-methyl-pyrrolo[3,2-d]pyrimidine-7-carboxylic acid[2,6-difluoro-3-(propane-1-sulfonylamino)-phenyl]-amide] | < 100 | < 1000 | 18.4
15 | CCCS(=O)(=O)Nc1ccc(F)c(NC(=O)c2csc3c(C)ncnc23)c1F [Example 40, 4-Methyl-thieno[3,2-d]pyrimidine-7-carboxylic acid [2,6-difluoro-3-(propane-1-sulfonylamino)-phenyl]-amide] | < 100 | < 1000 | 85.5
16 | CCCS(=O)(=O)Nc1cccc(NC(=O)c2nsc3c(N)ncnc23)c1C#N [Example 33, 7-Amino-isothiazolo[4,5-d]pyrimidine-3-carboxylic acid [2-cyano-3-(propane-1-sulfonylamino)-phenyl]-amide] | < 100 | < 1000 | 0.38
17 | CCCS(=O)(=O)Nc1cc(Cl)cc(NC(=O)c2csc3c(N)ncnc23)c1F [Example 21, 4-Amino-thieno[3,2-d] pyrimidine-7-carboxylic acid [5-chloro-2-fluoro-3-(propane-1-sulfonyl-amino)-phenyl]-amide] | < 100 | < 1000 | 47.1
18 | CCCS(=O)(=O)Nc1ccc(F)c(NC(=O)c2csc3c(NC)ncnc23)c1F [Example 46, 4-Methylamino-thieno[3,2-d]pyrimidine-7-carboxylic acid [2,6-difluoro-3-(propane-1-sulfonylamino)-phenyl]-amide] | < 100 | < 1000 | 49.6
